Results published in BindingDB's records for doi:10.1021/jm991119p (The Institute of Cancer Research, 2000).

Biological target: reduced folate carrier 1 (Mus musculus)
Assay: Affinity towards RFC (Reduced folate carrier) measured by the inhibition of [3H]MTX uptake

## C#CCN(Cc1cc2c(=O)[nH]c(C)nc2cc1C)c1ccc(C(=O)N[C@@H](CCC(=O)N[C@H](CCC(=O)O)C(=O)O)C(=O)O)cc1
  Ki: 200 µM
